Measurements reported in ChEMBL document CHEMBL1149019, “Antineoplastic agents, 120. Pancratium littorale” (1986).
Converted amounts (≈) assume the structure as drawn.

What was measured:
Format in all cases: functional
[1] = Cytotoxicity against mouse 9PS cells; settings: read-out: ED50 (the source's name)
P388 [2] = assay: In vivo cytotoxicity against mouse P388 cells at 25 mg/kg relative to control
P388 [3] = assay: In vivo cytotoxicity against mouse P388 cells at 12.5 mg/kg relative to control
P388 [4] = assay: In vivo antitumor activity against mouse P388 cells assessed as life extension at 0.75 to 12.5 mg/kg; settings: dose mg/kg 0.75-12.5
M5076 [5] = assay: In vivo antitumor activity against mouse M5076 cells assessed as life extension at 0.38 to 3 mg/kg; settings: dose mg/kg 0.38-3
P388 [6] = assay: In vivo cytotoxicity against mouse P388 cells at 0.75 to 6 mg/kg relative to control; settings: dose mg/kg 0.75-6
M5076 [7] = assay: In vivo cytotoxicity against mouse M5076 cells at 0.38 to 3 mg/kg relative to control; settings: dose mg/kg 0.38-3

Molecule `O=C1N[C@@H]2C(=C[C@H](O)[C@@H](O)[C@H]2O)c2cc3c(cc21)OCO3` has an EC50 [1] of 0.02 µg/mL (≈ 0.0687 µM), a T/C (P388 [2]) of 161 and a T/C (P388 [3]) of 161.
Molecule `O=C1N[C@H]2[C@H](O)[C@H](O)[C@@H](O)[C@H](O)[C@@H]2c2cc3c(c(O)c21)OCO3` [PANCRATISTATIN] has an Activity (P388 [4]) of 38%, an Activity (M5076 [5]) of 53% and a T/C (P388 [6]) of 138. The T/C (M5076 [7]) was 153, the EC50 [1] was 0.01 µg/mL (≈ 0.0307 µM) and the T/C (P388 [3]) was 206.
